Experimental data reported in patent US20230364057A1, “BACTERIAL DNA GYRASE INHIBITORS AND METHODS OF USE THEREOF” (THE FLORIDA INTERNATIONAL UNIVERSITY BOARD OF TRUSTEES, priority 2022, published 2023).

Columns and labels:
[1] = target: T1, E. coli DNA gyrase (Escherichia coli (strain K12), UniProt P0AES4+P0AES6); test: Agarose gel-based DNA gyrase inhibition assay; format: biochemical
Protocol: 100 ng of DNA gyrase was used to supercoil the rx pAB1 in the presence of different concentrations of a gyrase inhibitor. […] Samples were analyzed by electrophoresis in 1% w/v agarose gels followed by ethidium bromide staining and photographed under UV light.

[2] = target: T1, E. coli DNA gyrase; test: biochemical; format: biochemical

| Structure (SMILES) | inhibition of E. coli DNA gyrase activities ([1]; 200 µM of compounds) | also measured |
| --- | --- | --- |
| Cc1cccc2c1N=C(O)C2/N=N/c1ccc(S(N)(=O)=O)cc1 (stereo not shown) [Compound 116] |  | inhibition of E. coli DNA gyrase activities ([1]; 50 µM of compounds): completely inhibited |
| Cc1cc(C)c2c(c1)C(=NNc1ccc(C)c(Cl)c1)C(O)=N2 [Compound 132] |  | inhibition of E. coli DNA gyrase activities ([1]; 50 µM of compounds): completely inhibited |
| N#C/C(=C\c1coc2ccc(O)cc2c1=O)C(=O)/N=c1\[nH]c2ccccc2s1 [Compound 165] |  | inhibition of E. coli DNA gyrase activities ([1]; 50 µM of compounds): completely inhibited |
| O=C(O)C(c1ccccc1)N1C(=O)/C(=C\c2ccc(-c3cccc(Cl)c3)o2)SC1=S (stereo not shown) [Compound 176] |  | inhibition of E. coli DNA gyrase activities ([1]; 50 µM of compounds): completely inhibited |
| O=C1/C(=C\c2ccc(O)c([N+](=O)[O-])c2)SC(=S)N1Cc1ccccc1 [Compound 192] |  | inhibition of E. coli DNA gyrase activities ([1]; 50 µM of compounds): completely inhibited |
| O=C1NC(=S)S/C1=C/c1cc(Cl)cc(Cl)c1O [Compound 207] | completely inhibited | inhibition of E. coli DNA gyrase activities ([1]; 50 µM of compounds): inhibited |
| Brc1ccc2c(c1)-c1ccccc1C1=NCCN12 [Compound 217] | completely inhibited |  |
| CN(C)c1ccc(/C=c2\c3ccccc3n3c2cc(-c2ccccc2)[n+]3C)cc1 [Compound 236] | completely inhibited | inhibition of E. coli DNA gyrase activities ([1]; 50 µM of compounds): completely inhibited |
| COc1ccc2c(c1)/c(=C\c1ccc(N(C)C)cc1)c1cc(-c3ccccc3)[n+](C)n12.O=S(=O)([O-])C(F)(F)F [Compound 237] | completely inhibited |  |
| CC1=NN(c2nc(N)nc(/C(C#N)=C\c3ccc([N+](=O)[O-])o3)n2)C(C)(C)C1 [Compound 238] | completely inhibited |  |
| CCOC(=O)c1cc2c(=Cc3ccc(N(C)C)cc3)c3ccccc3n2[n+]1C.O=S(=O)([O-])C(F)(F)F [Compound 239] | completely inhibited |  |
| COc1cccc2nc3c(C(=O)NCCN(C)C)cccc3cc12.Cl [Compound 240] | completely inhibited |  |
| CN(C)CCNC(=O)c1cccc2nc3cccc(F)c3nc12.Cl [Compound 241] | completely inhibited |  |
| Nc1ccc2cc3ccc(N)cc3nc2c1 [Compound 246] | completely inhibited |  |
| Nc1c2ccccc2nc2ccccc12 [Compound 247] | completely inhibited |  |
| CN1/C(=C/c2cc[n+](C)c3ccccc23)Sc2ccccc21.Cc1ccc(S(=O)(=O)[O-])cc1 [Compound 248] | completely inhibited |  |
| CN(C)c1ccc2cc3ccc(N(C)C)cc3nc2c1 [Compound 249] | completely inhibited |  |
| CCOc1ccc2nc3cc(N)ccc3c(N)c2c1 [Compound 257] | completely inhibited |  |
| CSC1SC2C(=O)N(C)C(C(C)C)C(=O)OCC(NC(=O)c3cnc4ccccc4n3)C(=O)NC(C)C(=O)N(C)C1C(=O)N(C)C(C(C)C)C(=O)OCC(NC(=O)c1cnc3ccccc3n1)C(=O)NC(C)C(=O)N2C (stereo not shown) [Compound 258] | completely inhibited |  |
| O=C(O[C@@H]1Cc2c(O)cc(O)cc2O[C@@H]1c1cc(O)c(O)c(O)c1)c1cc(O)c(O)c(O)c1 [EGCG, epigallocatechin gallate, reference compound] |  | inhibition of E. coli DNA gyrase activities [2]: strongly inhibit |
| CN1C[C@H](CNC(=O)OCc2ccccc2)C[C@@H]2c3cccc4c3c(cn4C)C[C@H]21 [Metergoline, metergoline, reference compound] |  | inhibition of E. coli DNA gyrase activities [2]: inhibits gyrase activities at 100 and 200 µM |
| O=C(OC[C@H]1O[C@@H](OC(=O)c2cc(O)c(O)c(OC(=O)c3cc(O)c(O)c(O)c3)c2)[C@H](OC(=O)c2cc(O)c(O)c(OC(=O)c3cc(O)c(O)c(O)c3)c2)[C@@H](OC(=O)c2cc(O)c(O)c(OC(=O)c3cc(O)c(O)c(O)c3)c2)[C@@H]1OC(=O)c1cc(O)c(O)c(OC(=O)c2cc(O)c(O)c(O)c2)c1)c1cc(O)c(O)c(OC(=O)c2cc(O)c(O)c(O)c2)c1 [Tannic acid, tannic acid] |  | IC50 ([1]; gel-based, read-out: IC50 against E. coli DNA gyrase): 1000 nM |
| O=c1oc2c(O)c(O)cc3c(=O)oc4c(O)c(O)cc1c4c23 [ellagic acid, reference compound] |  | inhibition of E. coli DNA gyrase activities [2]: strongly inhibit |
| Cc1c2cc(O)c(=O)cc-2oc2cc(O)c(O)cc12 [methyl fluorone black] |  | IC50 ([2]; read-out: IC50 against E. coli DNA gyrase): < 10000 nM |
| O=c1ccc2cc3ccoc3cc2o1 [psoralen, reference compound] |  | inhibition of E. coli DNA gyrase activities [2]: is not a gyrase inhibitor |
| O=C(O)c1cc(O)c2c(c1)C(=O)c1cccc(O)c1C2=O [rhein] |  | inhibition of E. coli DNA gyrase activities [2]: potently inhibited |
